Experimental data taken from patent publication US8470370B2, “Controlled release formulations” (Aegis Therapeutics, LLC, priority 2007, dated 2013).

Experiments:
[1] = Solubility of folic acid in water and 0.1 M sodium bicarbonate; format: physicochemical
Experimental: FIGS. 20 and 21 show several examples of these hydrogels. A-4 is a hydrogel of 2% sucrose stearate/sucrose distearate containing 2.5 mg/ml of folic acid. […] F-4 is a similar hydrogel containing 1 mM curcumin formed from 2% sucrose stearate/sucrose distearate in 0.1M sodium bicarbonate again after heating to 45 degrees C., vortexing to distribute the curcumin and letting the hydrogel form upon cooling to room temperature.

[2] = Curcumin concentration in tetradecylmaltoside hydrogel versus solubility in water; format: physicochemical
Excerpt: Curcumin was also used in the preparation of hydrogels. Curcumin is a natural product isolated from the root of Curcuma longa from which the spice turmeric is obtained. It has been reported to have potent antioxidative, anti-inflammatory and antiseptic properties, but has extremely low solubility in water and poor bioavailability which limits its pharmaceutical use. By encapsulating curcumin in a hydrogel composed of 2% tetradecylmaltoside a concentration of the compound in the gel can be obtained which is about 33,000 times higher than the solubility of curcumin in water, for example, 1×10^−3 M in the hydrogel vs. 3×10^−8 M in water. The resulting gels are yellow or yellow-orange in color depending on whether sodium bicarbonate is present during the formulation of the gel (see FIG. 13). FIG. 13 is a pictorial representation showing hydrogels of curcumin. Sample E-2 is a hydrogel composed of 2% tetradecylmaltoside and 1 mM curcumin. Sample F-2 is a hydrogel composed of 2% tetradecylmaltoside, 1 mM curcumin, and 0.1 M sodium bicarbonate.

| solubility of folic acid ([1]; 0.1 M sodium bicarbonate, 2.5 mg/ml for sample B-5) | solubility of folic acid ([1]; water, 2.5 mg/ml for sample A-5) | concentration of curcumin in the hydrogel ([2]; 2% tetradecylmaltoside hydrogel) [µM] | concentration in gel relative to solubility in water ([2]; 2% tetradecylmaltoside hydrogel vs water) | Compound |
| --- | --- | --- | --- | --- |
| completely dissolves | poorly soluble |  |  | Nc1nc2ncc(CNc3ccc(C(=O)N[C@@H](CCC(=O)O)C(=O)O)cc3)nc2c(=O)[nH]1 [Folic acid, folic acid] |
|  |  | 1000 | about 33,000 times | COc1cc(/C=C/C(=O)CC(=O)/C=C/c2ccc(O)c(OC)c2)ccc1O [curcumin] |
